Values of other authors in patent US20100087769A1, “BIOCIDIC MEDICAL DEVICES, IMPLANTS AND WOUND DRESSINGS” (OPLON B.V., priority 2007, published 2010).
Entries after “also recorded” stand apart in the source; their conditions may differ. Where two headings read alike, the source gives them in different places.

Columns and labels:
MRSA = details: topical; 1% silver sulfadiazine, 2% mupirocin, 2% fusidic acid
[1] = topical
[2] = system: aerobic gram-negative bacilli, P. aeruginosa; details: spectrum as listed in the cell
[3] = system: Aspergillus or Fusarium spp.; details: powder, 6 million units/g; four burn patients
[4] = system: other Candida spp. and fungi
[5] = not given; remark: listed apart in the source

**Q.** For CC(=O)O[C@H]1C[C@@]2(C)[C@@H](C[C@@H](O)[C@H]3[C@@]4(C)CC[C@@H](O)[C@@H](C)[C@@H]4CC[C@@]32C)/C1=C(\CCC=C(C)C)C(=O)O [fusidic acid], which “reducing local wound bacterial counts and preventing systemic infection” value (MRSA) is on record?
**A.** equally effective

**Q.** Which “reducing local wound bacterial counts and preventing systemic infection” value (MRSA) does the source give for C/C(=C\C(=O)OCCCCCCCCC(=O)O)C[C@@H]1OC[C@H](C[C@@H]2O[C@H]2[C@@H](C)[C@H](C)O)[C@@H](O)[C@H]1O [mupirocin, pseudomonic acid A] here?
**A.** equally effective

**Q.** For O=[N+]([O-])[O-].[Ag+] [Silver nitrate], which Eschar penetration [1] is on record?
**A.** None

**Q.** What about the Major toxicity (topical) of the same compound?
**A.** Electrolyte

**Q.** What about the Antibacterial activity [2] of the same compound?
**A.** Bacteriostatic against; also recorded: limited antifungal

**Q.** For C[C@@H]1[C@H](O)[C@@H](C)/C=C/C=C/CC/C=C/C=C/C=C/C=C/C(O[C@H]2O[C@H](C)[C@@H](O)[C@H](N)[C@@H]2O)CC2O[C@](O)(CC(O)C(O)CCC(O)CC(O)CC(O)CC(=O)O[C@H]1C)CC(O)C2C(=O)O (stereo partly drawn) [Nystatin], which “treatment of angioinvasive fungal infections” value [3] is on record?
**A.** effective

**Q.** What about the “concentration needed to inhibit” value [4] of the same compound?
**A.** 6.25 µg/mL

**Q.** And the concentration that inhibits (Candida albicans)?
**A.** 3 µg/mL

**Q.** Which Major toxicity (in vivo) does the source give for NCc1ccc(S(N)(=O)=O)cc1 [Mafenide acetate] here?
**A.** Metabolic

**Q.** What about the Antibacterial activity [2] of the same compound?
**A.** Broad spectrum against

**Q.** And the reduction in mortality ([5]; burns of 40 to 79% TBSA)?
**A.** greater than 10%

**Q.** And the effect on mortality ([5]; patients with smaller or much larger burn injuries)?
**A.** only a minimal effect
